Data reported in US20110117038A1, “Dopa Oxidase Inhibitor, Skin-Lightening Agent and External Preparation for Skin” (Kao Corporation, priority 2009, published 2011).

Target: T1, dopa oxidase activity (tyrosinase) of human neonatal foreskin-derived melanocytes (Homo sapiens, UniProt P14679)
T1 construct: The cells were lysed for 3 hours at 4° C., and the dopa oxidase activity was measured; endogenous in cells; host or cells: human neonatal foreskin-derived melanocytes (primary), lysed with NP-40/SDS extraction buffer
T1 sequence (P14679 19-529): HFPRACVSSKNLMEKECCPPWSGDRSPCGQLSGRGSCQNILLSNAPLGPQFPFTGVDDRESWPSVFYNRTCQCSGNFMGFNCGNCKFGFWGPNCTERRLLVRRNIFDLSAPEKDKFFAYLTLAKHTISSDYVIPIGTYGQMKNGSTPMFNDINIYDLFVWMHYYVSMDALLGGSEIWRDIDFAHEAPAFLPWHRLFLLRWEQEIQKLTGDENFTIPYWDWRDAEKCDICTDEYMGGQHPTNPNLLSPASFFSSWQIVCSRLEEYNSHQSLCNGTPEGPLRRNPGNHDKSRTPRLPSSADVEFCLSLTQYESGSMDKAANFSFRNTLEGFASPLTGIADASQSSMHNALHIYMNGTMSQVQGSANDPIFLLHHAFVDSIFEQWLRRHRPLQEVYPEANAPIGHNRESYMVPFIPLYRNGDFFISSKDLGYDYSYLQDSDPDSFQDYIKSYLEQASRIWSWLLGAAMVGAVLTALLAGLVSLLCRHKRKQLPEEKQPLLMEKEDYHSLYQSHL
Test: Measurement of dopa oxidase activity (MBTH method) in lysate of treated melanocytes
Assay type: cell-based
Settings: read-out: Dopa oxidase activity (%)
Procedure: 100 μL of human neonatal foreskin-derived melanocytes were inoculated on each well of a 96-well plate to be a cell density of 1×10^4 cells/well. The medium used therein was Medium 254 to which HMGS (Human Melanocyte Growth Supplement) excluding PMA (all manufactured by Cascade Biologics Inc.) was added.
After culturing the cells for 24 hours, endothelin-1 (ET-1) which is a melanocyte activator, stem cell growth factor (SCF), α-melanocyte stimulating hormone (α-MSH), histamine and prostaglandin E2 (PGE2) were mixed and added to the each culture at a final concentration in medium of 10×10^−7 mol/m^3 in each. […]
The melanocytes which had been used in the measurement of the cell proliferation activity were washed with Phosphate-buffered saline (PBS) from which Ca^2+ and Mg^2+ had been eliminated, and 20 μL/well of an extraction buffer (0.1 M Tris-HCl (pH 7.2), 1% Nonidet P-40, 0.01% SDS, 100 μM phenylmethylsulfonyl fluoride (PMSF) and 1 μg/ml aprotinin) and 20 μL/well of an assay buffer (100 mM Sodium phosphate-buffer (pH 7.1) containing 4% dimethylformamide) were added to the cells. The cells were lysed for 3 hours at 4° C., and its dopa oxidase activity was measured. […]
Further, the values of the dopa oxidase activity are indicated as values relative to the absorbances of the instances where various plant extracts were not added. […]

CC(=O)O[C@@H]1C[C@H](O)[C@@]23CO[C@@H](O)[C@]1(C)[C@@H]2C[C@@H](O)[C@]1(C)[C@@H]3C(=O)[C@H](OC(C)=O)[C@@]2(C)[C@H](c3ccoc3)C[C@H]3O[C@]321 [Toosendanin] was tested, and the activity at 0.1 µM was 15%.
